According to US7375180B2, “Methods and compositions related to IRM compounds and Toll-like receptor 8” (3M Innovative Properties Company, priority 2003, dated 2008):

What was measured:
[1] = biological target: T1, TLR8 (Homo sapiens, UniProt Q9NR97); experiment: Identification as TLR8 activator or non-activator (negative control compound); assay type: cell-based; conditions: used as negative control in monocyte, dendritic cell and macrophage tests
T1 sequence (Q9NR97 27-1041): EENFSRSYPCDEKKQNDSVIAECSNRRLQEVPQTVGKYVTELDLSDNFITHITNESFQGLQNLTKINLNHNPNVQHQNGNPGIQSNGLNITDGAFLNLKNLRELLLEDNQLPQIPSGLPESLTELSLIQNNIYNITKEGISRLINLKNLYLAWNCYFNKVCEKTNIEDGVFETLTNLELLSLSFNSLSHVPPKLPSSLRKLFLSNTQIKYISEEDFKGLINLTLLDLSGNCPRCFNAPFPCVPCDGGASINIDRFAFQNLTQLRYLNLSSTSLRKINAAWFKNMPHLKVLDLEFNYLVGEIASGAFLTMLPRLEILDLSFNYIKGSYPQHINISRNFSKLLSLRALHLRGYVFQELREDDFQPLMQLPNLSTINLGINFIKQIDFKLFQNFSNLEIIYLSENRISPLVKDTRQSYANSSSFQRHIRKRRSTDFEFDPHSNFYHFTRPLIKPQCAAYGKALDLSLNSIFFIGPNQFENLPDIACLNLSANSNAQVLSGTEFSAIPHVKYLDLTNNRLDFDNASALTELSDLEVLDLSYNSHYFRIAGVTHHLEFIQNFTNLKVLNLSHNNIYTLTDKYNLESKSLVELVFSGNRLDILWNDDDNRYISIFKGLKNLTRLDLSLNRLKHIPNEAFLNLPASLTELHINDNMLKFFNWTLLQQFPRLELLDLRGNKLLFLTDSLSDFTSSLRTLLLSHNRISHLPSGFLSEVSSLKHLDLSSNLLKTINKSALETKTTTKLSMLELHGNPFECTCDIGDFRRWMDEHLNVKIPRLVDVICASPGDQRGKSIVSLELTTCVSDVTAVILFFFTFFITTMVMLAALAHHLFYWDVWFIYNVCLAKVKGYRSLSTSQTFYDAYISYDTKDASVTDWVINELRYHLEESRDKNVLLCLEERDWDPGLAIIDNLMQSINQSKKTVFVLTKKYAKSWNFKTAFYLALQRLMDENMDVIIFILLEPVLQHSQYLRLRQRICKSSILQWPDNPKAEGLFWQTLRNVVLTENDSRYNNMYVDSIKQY

[2] = biological target: T1, TLR8; experiment: NF-κB-luciferase reporter activation in HEK293-TLR8 cells, 10 μM IRM (Example 1); assay type: cell-based; design: expressed in transfected cells; host or cells: HEK293 (ATCC CRL-1573), pIRES vector, G-418 selected, co-transfected with NFkB-luc reporter; conditions: for Fold Increase Over DMSO Control, HEK293-TLR8: 16 hours, luciferase signal, TLR8-transfected cells; for Fold Increase Over DMSO Control, HEK293-TLR8 / HEK293-vector: ratio of TLR8-transfected to vector-transfected cells
Description: (§1) HEK293 cells, derived from human embryonic kidney cells, may be co-transfected with (1) either a control vector (HEK293-vector) or a vector construct including human TLR8 (HEK293-TLR8), and (2) an NF-κB-luciferase reporter. The NF-κB-luciferase reporter provides a luciferase signal upon NF-κB activation in a transfected cell. Thus, TLR8-mediated NF-κB activity can be detected by exposing the cells transfected with vector and the cells transfected with the TLR8 construct to a test compound, then comparing the luciferase signal of the vector-transfected cells with the luciferase signal of the cells transfected with the TLR8 construct.
(§2) HEK293 cells were cultured in 90% Minimum Essential Medium (MEM) with 2 mM L-glutamine and Earle's Balanced Salt Solution (Invitrogen Corp., Rockville, Md.) adjusted to contain 1.5 g/L sodium bicarbonate, 0.1 mM non-essential amino acids, and 1.0 mM sodium pyruvate; 10% heat-inactivated fetal calf serum. The cells were incubated at 37° C., 8% CO2.
(§3) The cells were co-transfected with (1) pIRES (BD Biosciences Clontech, Palo Alto, Calif.) either (a) unmodified (HEK293-vector) or (b) containing human TLR8 (HEK293-TLR8), and (2) NFkB-luc reporter (Stratagene, La Jolla, Calif.) in a 10:1 ratio with Fugene 6 transfection reagent (Roche Diagnostics Corp., Indianapolis, Ind.) following the manufacturer's instructions.
(§4) The cells were stimulated with 1 μL of IRM compounds at 1 mM in DMSO (final IRM concentration of 10 μM) or 1 μL DMSO as a control. The plates were then incubated an additional 16 hours at 37° C., 5% CO2. Luminescence was measured on an LMAX luminometer (Molecular Devices Corp., Sunnyvale, Calif.).

[3] = tested on: HEK293-vector; experiment: NF-κB-luciferase reporter activation in HEK293-vector control cells, 10 μM IRM (Example 1); assay type: cell-based, human; conditions: 16 hours, luciferase signal, vector-transfected cells; for fold induction at 10 µM: Homo sapiens, read-out: Fold Increase Over DMSO Control, HEK293-vector
Description: as §1, §2, §3, §4

SMILES	TLR8 activation (in words) [1]	Fold Increase Over DMSO Control, HEK293-TLR8 [2]	Fold Increase Over DMSO Control, HEK293-TLR8 / HEK293-vector [2]	fold induction at 10 µM [3]	Fold Increase Over DMSO Control, HEK293-vector [3]
CCc1nc2c(N)nc3ccccc3c2n1CCCCS(=O)(=O)c1cc(Cl)cc(Cl)c1 [IRM 12, 1-{4-[(3,5-dichlorophenyl)sulfonyl]butyl}-2-ethyl-1H-imidazo[4,5-c]quinolin-4-amine]		6.04 fold	5.2	1.16	
CCOCc1nc2c(N)nc3c(c2n1CC(C)(C)O)CCCC3 [IRM 1, 4-amino-2-ethoxymethyl-α,α-dimethyl-6,7,8,9-tetrahydro-1H-imidazo[4,5-c]quinoline-1-ethanol]		8.64 fold	10.2	0.85	
CCOCc1nc2c(N)nc3ccccc3c2n1CCCNC(=S)Nc1cccc(C#N)c1 [IRM 14, N-{3-[4-amino-2-(ethoxymethyl)-1H-imidazo[4,5-c]quinolin-1-yl]propyl}-n′-(3-cyanophenyl)thiourea]		10.00 fold	7.9		1.26 fold
CCCCc1nc2c(N)nc3cccnc3c2n1CCNC(=O)C(N)CC(C)C (stereo not shown) [IRM 6, N^1-[2-(4-amino-2-butyl-1H-imidazo[4,5-c][1,5]naphthyridin-1-yl)ethyl]-2-amino-4-methylpentanamide]		9.24 fold	7.8	1.19	
Nc1nc2ccccc2c2c1ncn2CCOCC#Cc1ccncc1.O=C(O)C(F)(F)F.O=C(O)C(F)(F)F [IRM 8, 1-(2-{[3-(4-pyridyl)-2-propynyl]oxy}ethyl)-1H-imidazo[4,5-c]quinolin-4-amine bis(trifluoroacetate)]		2.38 fold	2.0	1.18	
CCOCc1nc2c(N)nc3ccccc3c2n1CCOCCNC(=O)NC1CCCCC1 [IRM 13, N-(2-{2-[4-amino-2-(ethoxymethyl)-1H-imidazo[4,5-c]quinolin-1-yl]ethoxy}ethyl)-n′-cyclohexylurea]		2.33 fold	2.3		0.99 fold
CCCCNC(=O)NCCCCn1c(CCCC)nc2c(N)nc3cccnc3c21 [IRM 5, N-[4-(4-amino-2-butyl-1H-imidazo[4,5-c][1,5]naphthyridin-1-yl)butyl]-n′-butylurea]		2.13 fold	2.5		0.84 fold

Now from value to compound, other results behind:

TLR8 activation (in words) [1]	Fold Increase Over DMSO Control, HEK293-TLR8 [2]	Fold Increase Over DMSO Control, HEK293-TLR8 / HEK293-vector [2]	SMILES	fold induction at 10 µM [3]	Fold Increase Over DMSO Control, HEK293-vector [3]
does not activate TLR8			CCc1nc2c(N)nc3ccccc3c2n1CCCCNS(C)(=O)=O [IRM 16, N-[4-(4-amino-2-ethyl-1H-imidazo[4,5-c]quinolin-1-yl)butyl]methanesulfonamide]		
	10.69 fold	10.5	Nc1nc2ccccc2c2c1ncn2CCCCNC(=O)c1ccccc1Oc1ccccc1 [IRM 7, N^1-[4-(4-amino-1H-imidazo[4,5-c]quinolin-1-yl)butyl]-2-phenoxybenzamide]	1.02	
	8.64 fold	11.2	CCCCc1nc2c(N)nc3ccccc3c2n1CCNS(C)(=O)=O [IRM 9, N-[2-(4-amino-2-butyl-1H-imidazo[4,5-c]quinolin-1-yl)ethyl]methanesulfonamide]	0.77	
	3.14 fold	2.1	CCOCc1nc2c(N)nc3ccccc3c2n1CC(C)(C)N [IRM 11, 1-(2-amino-2-methylpropyl)-2-(ethoxymethyl)-1H-imidazo[4,5-c]quinolin-4-amine]	1.47	
	10.18 fold	8.8	COCCc1nc2c(N)nc3ccccc3c2n1CC(C)(C)O [IRM 2, 4-amino-α,α-dimethyl-2-methoxyethyl-1H-imidazo[4,5-c]quinoline-1-ethanol]		1.16 fold
	2.14 fold	2.7	CCCCc1nc2c(N)nc3ccccc3c2n1CC(C)(C)CNC(=O)c1ccccc1 [IRM 15, N-[3-(4-amino-2-butyl-1H-imidazo[4,5-c]quinolin-1-yl)-2,2-dimethylpropyl]benzamide]	0.78	
	7.25 fold	6.7	COCCc1nc2c(N)nc3ccccc3c2n1CCOCCNC(=O)Nc1ccccc1 [IRM 10, N-(2-{2-[4-amino-2-(2-methoxyethyl)-1H-imidazo[4,5-c]quinolin-1-yl]ethoxy}ethyl)-n′-phenylurea]		1.08 fold
	2.64 fold	6.4	CCOCc1nc2c(N)nc3ccccc3c2n1CCOCCCOCc1ccccc1 [IRM 4, 1-{2-[3-(benzyloxy)propoxy]ethyl}-2-(ethoxymethyl)-1H-imidazo[4,5-c]quinolin-4-amine]	0.41	
